How the values were obtained:
Assay type in all cases: in vivo
Zea Mays (ZEAMX) [1] = experiment: B6 Pre-Emergence Efficacy—Test 3; settings: pre-emergence application, 250 g/ha, evaluated after 13 days (Test 3)
Description: (§1) B6 Pre-Emergence Efficacy—Test 3 Seeds of a variety of test species were sown in standard soil in pots: Amaranthus retoflexus (AMARE), Setaria faberi (SETFA), Echinochloa crus-galli (ECHCG), Ipomoea hederacea (IPOHE), Zea Mays (ZEAMX), Abutilon theophrasti (ABUTH). After cultivation for one day (pre-emergence) under controlled conditions in a glasshouse (at 24/16° C., day/night; 14 hours light; 65% humidity), the plants were sprayed with an aqueous spray solution derived from the formulation of the technical active ingredient in acetone/water (50:50) solution containing 0.5% Tween 20 (polyoxyethelyene sorbitan monolaurate, CAS RN 9005-64-5). Compounds are applied at 250 g/ha. The test plants were then grown in a glasshouse under controlled conditions (at 24/16° C., day/night; 14 hours light; 65% humidity) and watered twice daily. After 13 days, the test is evaluated for the percentage damage caused to the plant. The biological activities are assessed on a five point scale (5=80-100%; 4=60-79%; 3=40-59%; 2=20-39%; 1=0-19%). A blank value in the table is indicative that the compound was not tested on that species.

[2] = system: Abutilon theophrasti (ABUTH); experiment: B6 Pre-Emergence Efficacy—Test 3; settings: pre-emergence application, 250 g/ha, evaluated after 13 days (Test 3)
Description: as §1

[3] = system: Ipomoea hederacea (IPOHE); experiment: B6 Pre-Emergence Efficacy—Test 3; settings: pre-emergence application, 250 g/ha, evaluated after 13 days (Test 3)
Description: as §1

[4] = system: Amaranthus retoflexus (AMARE); experiment: B6 Pre-Emergence Efficacy—Test 3; settings: pre-emergence application, 250 g/ha, evaluated after 13 days (Test 3)
Description: as §1

[5] = system: Echinochloa crus-galli (ECHCG); experiment: B6 Pre-Emergence Efficacy—Test 3; settings: pre-emergence application, 250 g/ha, evaluated after 13 days (Test 3)
Description: as §1

Setaria faberi (SETFA) [6] = experiment: B6 Pre-Emergence Efficacy—Test 3; settings: pre-emergence application, 250 g/ha, evaluated after 13 days (Test 3)
Description: as §1

Zea Mays (ZEAMX) [7] = experiment: B3 Post-Emergence Efficacy—Test 3; settings: post-emergence application, 250 g/ha, evaluated after 13 days (Test 3)
Description: (§2) B3 Post-Emergence Efficacy—Test 3 Seeds of a variety of test species are sown in standard soil in pots:—Amaranthus retoflexus (AMARE), Setaria faberi (SETFA), Echinochloa crus-galli (ECHCG), Ipomoea hederacea (IPOHE), Zea Mays (ZEAMX), Abutilon theophrasti (ABUTH). After 8 days cultivation (post-emergence) under controlled conditions in a glasshouse (at 24/16° C., day/night; 14 hours light; 65% humidity), the plants are sprayed with an aqueous spray solution derived from the formulation of the technical active ingredient in acetone/water (50:50) solution containing 0.5% Tween 20 (polyoxyethylene sorbitan monolaurate, CAS RN 9005-64-5). Compounds are applied at 250 g/ha. The test plants are then grown in a glasshouse under controlled conditions in a glasshouse (at 24/16° C., day/night; 14 hours light; 65% humidity) and watered twice daily. After 13 days, the test is evaluated for the percentage damage caused to the plant. The biological activities are assessed on a five point scale (5=80-100%; 4=60-79%; 3=40-59%; 2=20-39%; 1=0-19%). A blank value in the table is indicative that the compound was not tested on that species.

[8] = system: Abutilon theophrasti (ABUTH); experiment: B3 Post-Emergence Efficacy—Test 3; settings: post-emergence application, 250 g/ha, evaluated after 13 days (Test 3)
Description: as §2

[9] = system: Ipomoea hederacea (IPOHE); experiment: B3 Post-Emergence Efficacy—Test 3; settings: post-emergence application, 250 g/ha, evaluated after 13 days (Test 3)
Description: as §2

[10] = system: Amaranthus retoflexus (AMARE); experiment: B3 Post-Emergence Efficacy—Test 3; settings: post-emergence application, 250 g/ha, evaluated after 13 days (Test 3)
Description: as §2

[11] = system: Echinochloa crus-galli (ECHCG); experiment: B3 Post-Emergence Efficacy—Test 3; settings: post-emergence application, 250 g/ha, evaluated after 13 days (Test 3)
Description: as §2

Setaria faberi (SETFA) [12] = experiment: B3 Post-Emergence Efficacy—Test 3; settings: post-emergence application, 250 g/ha, evaluated after 13 days (Test 3)
Description: as §2

Row | SMILES | percentage damage caused to the plant, five point scale, ZEAMX (Zea Mays (ZEAMX) [1]) | percentage damage caused to the plant, five point scale, ABUTH [2] | percentage damage caused to the plant, five point scale, IPOHE [3] | percentage damage caused to the plant, five point scale, AMARE [4] | percentage damage caused to the plant, five point scale, ECHCG [5] | percentage damage caused to the plant, five point scale, SETFA (Setaria faberi (SETFA) [6]) | percentage damage caused to the plant, five point scale, ZEAMX (Zea Mays (ZEAMX) [7]) | percentage damage caused to the plant, five point scale, ABUTH [8] | percentage damage caused to the plant, five point scale, IPOHE [9] | percentage damage caused to the plant, five point scale, AMARE [10] | percentage damage caused to the plant, five point scale, ECHCG [11] | percentage damage caused to the plant, five point scale, SETFA (Setaria faberi (SETFA) [12])
1 | Cc1nn(C)c(=O)c(-c2c(F)ccc(C3CC3)c2CCc2ccnc(F)c2)c1O [Compound C-1.013, 4-[3-cyclopropyl-6-fluoro-2-[2-(2-fluoro-4-pyridyl)ethyl]phenyl]-5-hydroxy-2,6-dimethyl-pyridazin-3-one] | 4 (4=60-79%) | 5 (5=80-100%) | 5 (5=80-100%) | 5 (5=80-100%) | 5 (5=80-100%) | 5 (5=80-100%) | 4 (4=60-79%) | 4 (4=60-79%) | 4 (4=60-79%) | 5 (5=80-100%) | 5 (5=80-100%) | 4 (4=60-79%)
2 | Cc1nn(C)c(=O)c(-c2c(F)ccc(Cl)c2CCc2cnn(-c3ccccc3)c2)c1O [Compound A-1.386] | 2 (2=20-39%) | 2 (2=20-39%) | 4 (4=60-79%) | 2 (2=20-39%) | 5 (5=80-100%) | 5 (5=80-100%) | 4 (4=60-79%) | 3 (3=40-59%) | 4 (4=60-79%) | 4 (4=60-79%) | 4 (4=60-79%) | 4 (4=60-79%)
3 | Cc1nn(C)c(=O)c(-c2c(F)ccc(Cl)c2CCc2ccc(CSC(C)C)cc2)c1O [Compound A-1.389] | 4 (4=60-79%) | 3 (3=40-59%) | 5 (5=80-100%) | 5 (5=80-100%) | 5 (5=80-100%) | 5 (5=80-100%) | 5 (5=80-100%) | 4 (4=60-79%) | 5 (5=80-100%) | 4 (4=60-79%) | 5 (5=80-100%) | 5 (5=80-100%)
4 | Cc1nn(C)c(=O)c(-c2c(F)ccc(Cl)c2CCc2ccc(-c3ncco3)cc2)c1O [Compound A-1.382] | 4 (4=60-79%) | 4 (4=60-79%) | 5 (5=80-100%) | 5 (5=80-100%) | 5 (5=80-100%) | 5 (5=80-100%) | 5 (5=80-100%) | 4 (4=60-79%) | 5 (5=80-100%) | 4 (4=60-79%) | 4 (4=60-79%) | 4 (4=60-79%)
5 | Cc1nn(C)c(=O)c(-c2c(F)ccc(Cl)c2CCc2cnn(C3CC3)c2)c1O [Compound A-1.387] | 4 (4=60-79%) | 4 (4=60-79%) | 5 (5=80-100%) | 5 (5=80-100%) | 5 (5=80-100%) | 5 (5=80-100%) | 4 (4=60-79%) | 4 (4=60-79%) | 4 (4=60-79%) | 4 (4=60-79%) | 4 (4=60-79%) | 4 (4=60-79%)
6 | CSCc1ccc(CCc2c(Cl)ccc(F)c2-c2c(O)c(C)nn(C)c2=O)cc1 [Compound A-1.388, 4-[3-chloro-6-fluoro-2-[2-[4-(methylsulfanylmethyl)phenyl]ethyl]phenyl]-5-hydroxy-2,6-dimethyl-pyridazin-3-one] | 4 (4=60-79%) | 5 (5=80-100%) | 5 (5=80-100%) | 5 (5=80-100%) | 5 (5=80-100%) | 5 (5=80-100%) | 4 (4=60-79%) | 5 (5=80-100%) | 4 (4=60-79%) | 5 (5=80-100%) | 4 (4=60-79%) | 4 (4=60-79%)
7 | Cc1nn(C)c(=O)c(-c2c(F)ccc(Cl)c2CCc2ccc(C3CCC(C)O3)cc2)c1O (stereo not drawn) [Compound A-1.380] | 2 (2=20-39%) | 4 (4=60-79%) | 4 (4=60-79%) | 5 (5=80-100%) | 0 | 1 (1=0-19%) | 2 (2=20-39%) | 3 (3=40-59%) | 3 (3=40-59%) | 4 (4=60-79%) | 1 (1=0-19%) | 3 (3=40-59%)
8 | Cc1ccc(-c2ccc(CCc3c(Cl)ccc(F)c3-c3c(O)c(C)nn(C)c3=O)cc2)o1 [Compound A-1.381] | 1 (1=0-19%) | 1 (1=0-19%) | 3 (3=40-59%) | 3 (3=40-59%) | 0 | 0 | 1 (1=0-19%) | 3 (3=40-59%) | 4 (4=60-79%) | 4 (4=60-79%) | 0 | 2 (2=20-39%)

From patent US12540120B2, “Herbicidal compounds” (SYNGENTA CROP PROTECTION AG, priority 2019, dated 2026)
